Results: patent US20050245550A1, “Fungicidal mixtures based on the dithianon” (priority 2002, published 2005)

Experiments:
[1] = system: Botrytis cinerea; assay: Activity against gray mold on bell pepper leaves caused by Botrytis cinerea; format: in vivo; details: individual active compound
Description: (§1) The active compounds were prepared separately or jointly as a stock solution comprising 0.25% by weight of active compound in acetone or DMSO. 1% by weight of the emulsifier Uniperol® EL (wetting agent having emulsifying and dispersing action based on ethoxylated alkylphenols) was added to this solution, and the mixture was diluted with water to the desired concentration.
Bell pepper seedlings of the cultivar “Neusiedler Ideal Elite” were, after 4-5 leaves were well developed, sprayed to runoff point with an aqueous suspension having the concentration of active compound stated below. The next day, the treated plants were inoculated with a spore suspension of Botrytis cinerea which contained 1.7×10^6 spores/ml in a 2% strength aqueous biomalt solution. The test plants were then placed in a climatized chamber at 22-24° C. and high atmospheric humidity. After 5 days, the extent of the fungal infection on the leaves could be determined visually in %.
(§2) Evaluation was carried out by determining the infected leaf areas in percent. These percentages are converted into efficacies.
(§3) The efficacy (E) is calculated as follows using Abbot's formula: E=(1−α/β)·100 α corresponds to the fungal infection of the treated plants in % and • β corresponds to the fungal infection of the untreated (control) plants in %
(§4) An efficacy of 0 means that the infection level of the treated plants corresponds to that of the untreated control plants; an efficacy of 100 means that the treated plants were not infected.
(§5) The expected efficacies of the active compound mixtures are determined using Colby's formula [S. R. Colby, Weeds 15, 20-22 (1967)] and compared with the observed efficacies.
(§6) Colby's formula: E=x+y−x·y/100 • E expected efficacy, expressed in % of the untreated control, when using the mixture of the active compounds A and B at the concentrations a and b • x efficacy, expressed in % of the untreated control, when using active compound A at a concentration of a
(§7) y efficacy, expressed in % of the untreated control, when using active compound B at a concentration of b

[2] = system: Alternaria solani; assay: Activity against early blight of tomato caused by Alternaria solani; format: in vivo; details: individual active compound, 5 days after infection
Description: as §1, §2, §3, §4, §5, §6, §7
Leaves of potted plants of the cultivar “Groβe Fleischtomate St. Pierre” were sprayed to runoff point with an aqueous suspension having the concentration of active compounds stated below. The next day, the leaves were infected with an aqueous zoospore suspension of Alternaria solani in 2% biomalt solution having a density of 0.17×10^6 spores/ml. The plants were then placed in a water-vapor-saturated chamber at temperatures of between 20 and 22° C. After 5 days, the infection on the leaves of the untreated, but infected control plants had developed to such an extent that the infection could be determined visually in %.

[3] = concentration in the spray liquor 0.25, 5 days after inoculation
[4] = concentration in the spray liquor 1, 5 days after inoculation
[5] = concentration in the spray liquor 4, 5 days after inoculation

Compound | Efficacy in % of the untreated control [1, 3] [%] | Efficacy in % of the untreated control [1, 4] [%] | Efficacy in % of the untreated control [1, 5] [%] | Efficacy in % of the untreated control ([1]; concentration in the spray liquor 16, 5 days after inoculation) [%] | Efficacy in % of the untreated control ([2]; 0.25 ppm in the spray liquor) [%] | Efficacy in % of the untreated control ([2]; 1 ppm in the spray liquor) [%] | Efficacy in % of the untreated control ([2]; 4 ppm in the spray liquor) [%]
N#Cc1sc2c(=O)c3ccccc3c(=O)c=2sc1C#N [I, dithianon] | 0 | 0 | 0 | 0 | 0 | 0 | 0
CC1(C)CCC(Cc2ccc(Cl)cc2)C1(O)Cn1cncn1 (centres unmarked) [II-1, metconazole] | 0 | 49 |  |  | 2 | 63 | 
Fc1ccc(C2(Cn3cncn3)OC2c2ccccc2Cl)cc1 (centres unmarked) [II-2, epoxiconazole] | 9 | 9 |  |  | 63 | 75 | 
CC(C)(C)C(O)(CCc1ccc(Cl)cc1)Cn1cncn1 (centres unmarked) [II-4, tebuconazole] | 0 | 0 | 0 |  | 0 | 63 | 
